# Test results taken from patent EP0908457B1, “3-(1,2-benzisothiazol- and isoxazol-5-Y1)-2,4(1H,3H)-pyrimidinedione or thione and 3-(1,2-benzisothiazol- and isoxazol-5-y1)-4(3H)-pyrimidinone or thione herbicidal agents” (BASF AKTIENGESELLSCHAFT, priority 1997, dated 1999).
# How the values were obtained:
# [1] = system: Echinochloa oryzoides (Ard.) Fritsch.; assay: Preemergence weed control under flooded paddy conditions, ECHORC (Watergrass (Calif.)); format: in vivo; conditions: flooded paddy; for ECHORC: herbicidal effect rating 0-9, three to four weeks after treatment; as to herbicidal effect rating, ECHORC: meaning of each grade not given here
# Cyperus iria = assay: Preemergence weed control under flooded paddy conditions, CYPIR (Rice Flatsedge); format: in vivo; conditions: flooded paddy; for CYPIR: herbicidal effect rating 0-9, three to four weeks after treatment; as to herbicidal effect rating, CYPIR: meaning of each grade not given here
# [2] = system: Cyperus serotinus, Rottb.; assay: Preemergence weed control under flooded paddy conditions, CYPSE (Flatsedge); format: in vivo; conditions: for CYPSE: herbicidal effect rating 0-9, three to four weeks after treatment; as to herbicidal effect rating, CYPSE: meaning of each grade not given here
# [3] = system: Monochoria vaginalis, Presl.; assay: Preemergence weed control under flooded paddy conditions, MOOVA (Monochoria); format: in vivo; conditions: flooded paddy; for MOOVA: herbicidal effect rating 0-9, three to four weeks after treatment; as to herbicidal effect rating, MOOVA: meaning of each grade not given here
# Sagittaria pygmaea, L. = assay: Preemergence weed control under flooded paddy conditions, SAGPY (Arrowhead (Pygmaea)); format: in vivo; conditions: flooded paddy; for SAGPY: herbicidal effect rating 0-9, three to four weeks after treatment; as to herbicidal effect rating, SAGPY: meaning of each grade not given here
# [4] = system: Oryza sativa, (L.) Tebonnet; assay: Rice tolerance to post-transplant applications under flooded paddy conditions (Example 187), ORYSAT (Rice, Tebonnet); conditions: for ORYSAT: herbicidal effect rating 0-9, three to four weeks after treatment; as to herbicidal effect rating ORYSAT: meaning of each grade not given here
# [5] = Rate 0.0320 kg/ha, preemergence, rated 3-4 weeks after treatment
# [6] = Rate 0.0620 kg/ha, preemergence, rated 3-4 weeks after treatment
# [7] = Rate 0.1250 kg/ha, preemergence, rated 3-4 weeks after treatment
# [8] = Rate 0.2500 kg/ha, preemergence, rated 3-4 weeks after treatment
# [9] = Rate 0.5000 kg/ha, preemergence, rated 3-4 weeks after treatment
# [10] = 0.0320 kg/ha, preemergence weeds
# [11] = 0.0620 kg/ha, preemergence weeds
# [12] = 0.1250 kg/ha, preemergence weeds
# [13] = 0.2500 kg/ha, preemergence weeds
# [14] = Rate 0.0320 kg/ha, preemergence weeds, rated three to four weeks after treatment
# [15] = Rate 0.0620 kg/ha, preemergence weeds, rated three to four weeks after treatment
# [16] = Rate 0.1250 kg/ha, preemergence weeds, rated three to four weeks after treatment
# [17] = Rate 0.2500 kg/ha, preemergence weeds, rated three to four weeks after treatment
# [18] = Rate 0.0320 kg/ha, rated three to four weeks after treatment
# [19] = Rate 0.0620 kg/ha, rated three to four weeks after treatment
# [20] = Rate 0.1250 kg/ha, rated three to four weeks after treatment
# [21] = Rate 0.2500 kg/ha, rated three to four weeks after treatment
# [22] = Rate 0.0320 kg/ha, preemergence, rated three to four weeks after treatment
# [23] = Rate 0.0620 kg/ha, preemergence, rated three to four weeks after treatment
# [24] = Rate 0.1250 kg/ha, preemergence, rated three to four weeks after treatment
# [25] = Rate 0.2500 kg/ha, preemergence, rated three to four weeks after treatment
structure (smiles),measurement,setting,value
"CNC(=O)COc1ccccc1-c1nsc2ccc(-n3c(=O)cc(C(F)(F)F)n(C)c3=O)cc12 [Example 562, Acetamide, 2-{o-{5-[3,6-dihydro-3-methyl-2,6-dioxo-4-(trifluoromethyl)-1(2H)-pyrimidinyl]-1,2-benzisothiazol-3-yl}phenoxy}-N-methyl-]","herbicidal effect rating, ECHORC",[1]; [5],2.7
same,"herbicidal effect rating, ECHORC",[1]; [6],5.1
same,"herbicidal effect rating, ECHORC",[1]; [7],5.1
same,"herbicidal effect rating, ECHORC",[1]; [8],9.0
same,"herbicidal effect rating, ECHORC",[1]; [9],9.0
same,"herbicidal effect rating, CYPIR",Cyperus iria; [5],2.0
same,"herbicidal effect rating, CYPIR",Cyperus iria; [6],7.0
same,"herbicidal effect rating, CYPIR",Cyperus iria; [7],9.0
same,"herbicidal effect rating, CYPIR",Cyperus iria; [8],9.0
same,"herbicidal effect rating, CYPIR",Cyperus iria; [9],3.0
same,"herbicidal effect rating, CYPSE",[2]; [6],4.0
same,"herbicidal effect rating, CYPSE",[2]; [7],9.0
same,"herbicidal effect rating, CYPSE",[2]; [8],9.0
same,"herbicidal effect rating, CYPSE",[2]; [9],9.0
same,"herbicidal effect rating, MOOVA",[3]; [5],9.0
same,"herbicidal effect rating, MOOVA",[3]; [6],9.0
same,"herbicidal effect rating, MOOVA",[3]; [7],9.0
same,"herbicidal effect rating, MOOVA",[3]; [8],9.0
same,"herbicidal effect rating, MOOVA",[3]; [9],9.0
same,"herbicidal effect rating, SAGPY","Sagittaria pygmaea, L.; [5]",0.0
same,"herbicidal effect rating, SAGPY","Sagittaria pygmaea, L.; [6]",0.0
same,"herbicidal effect rating, SAGPY","Sagittaria pygmaea, L.; [7]",5.0
same,"herbicidal effect rating, SAGPY","Sagittaria pygmaea, L.; [8]",7.0
same,"herbicidal effect rating, SAGPY","Sagittaria pygmaea, L.; [9]",0.0
same,herbicidal effect rating ORYSAT,"[4]; Rate 0.0320 kg/ha, rated 3-4 weeks after treatment",2.0
same,herbicidal effect rating ORYSAT,"[4]; Rate 0.0620 kg/ha, rated 3-4 weeks after treatment",3.0
same,herbicidal effect rating ORYSAT,"[4]; Rate 0.1250 kg/ha, rated 3-4 weeks after treatment",4.0
same,herbicidal effect rating ORYSAT,"[4]; Rate 0.2500 kg/ha, rated 3-4 weeks after treatment",9.0
same,herbicidal effect rating ORYSAT,"[4]; Rate 0.5000 kg/ha, rated 3-4 weeks after treatment",6.0
"Cn1c(C(F)(F)F)cc(=O)n(-c2ccc3snc(COC4CCCCO4)c3c2)c1=O (stereo not drawn) [Example 456, 2,4(1H,3H)-Pyrimidinedione, 1-methyl-3-{3-{[(tetrahydro-2H-pyran-2-yl)oxy]methyl}-1,2-benzisothiazol-5-yl}-6-(trifluoromethyl)-]",ECHORC,[1]; [10],4.0
same,ECHORC,[1]; [11],6.0
same,ECHORC,[1]; [12],7.0
same,ECHORC,[1]; [13],9.0
same,CYPIR,Cyperus iria; [10],0.0
same,CYPIR,Cyperus iria; [11],4.0
same,CYPIR,Cyperus iria; [12],6.0
same,CYPIR,Cyperus iria; [13],6.0
same,CYPSE,[2]; [10],0.0
same,CYPSE,[2]; [11],0.0
same,CYPSE,[2]; [12],2.0
same,CYPSE,[2]; [13],4.0
same,MOOVA,[3]; [10],7.0
same,MOOVA,[3]; [11],9.0
same,MOOVA,[3]; [12],9.0
same,MOOVA,[3]; [13],9.0
same,SAGPY,"Sagittaria pygmaea, L.; [10]",0.0
same,SAGPY,"Sagittaria pygmaea, L.; [11]",0.0
same,SAGPY,"Sagittaria pygmaea, L.; [12]",2.0
same,SAGPY,"Sagittaria pygmaea, L.; [13]",4.0
same,ORYSAT,[4]; 0.0320 kg/ha,7.0
same,ORYSAT,[4]; 0.0620 kg/ha,8.0
same,ORYSAT,[4]; 0.1250 kg/ha,8.0
same,ORYSAT,[4]; 0.2500 kg/ha,9.0
"Cn1c(C(F)(F)F)cc(=O)n(-c2ccc3snc(C(=O)Oc4ccccc4)c3c2)c1=O [Example 319, 1,2-Benzisothiazole-3-carboxylic acid, 5-[3,6-dihydro-3-methyl-2,6-dioxo-4-(trifluoromethyl)-1(2H)-pyrimidinyl]-, phenyl ester]","herbicidal effect rating, ECHORC",[1]; [14],3.0
same,"herbicidal effect rating, ECHORC",[1]; [15],7.0
same,"herbicidal effect rating, ECHORC",[1]; [16],9.0
same,"herbicidal effect rating, ECHORC",[1]; [17],9.0
same,"herbicidal effect rating, CYPIR",Cyperus iria; [14],3.0
same,"herbicidal effect rating, CYPIR",Cyperus iria; [15],9.0
same,"herbicidal effect rating, CYPIR",Cyperus iria; [16],9.0
same,"herbicidal effect rating, CYPIR",Cyperus iria; [17],9.0
same,"herbicidal effect rating, CYPSE",[2]; [14],4.0
same,"herbicidal effect rating, CYPSE",[2]; [15],6.0
same,"herbicidal effect rating, CYPSE",[2]; [16],6.0
same,"herbicidal effect rating, CYPSE",[2]; [17],6.0
same,"herbicidal effect rating, MOOVA",[3]; [14],9.0
same,"herbicidal effect rating, MOOVA",[3]; [15],9.0
same,"herbicidal effect rating, MOOVA",[3]; [16],9.0
same,"herbicidal effect rating, MOOVA",[3]; [17],9.0
same,"herbicidal effect rating, SAGPY","Sagittaria pygmaea, L.; [14]",6.0
same,"herbicidal effect rating, SAGPY","Sagittaria pygmaea, L.; [15]",6.0
same,"herbicidal effect rating, SAGPY","Sagittaria pygmaea, L.; [16]",9.0
same,"herbicidal effect rating, SAGPY","Sagittaria pygmaea, L.; [17]",9.0
same,herbicidal effect rating ORYSAT,[4]; [18],5.0
same,herbicidal effect rating ORYSAT,[4]; [19],6.0
same,herbicidal effect rating ORYSAT,[4]; [20],6.0
same,herbicidal effect rating ORYSAT,[4]; [21],7.0
"CC(C)C=C(C#N)c1nsc2ccc(-n3c(=O)cc(C(F)(F)F)n(C)c3=O)cc12 [Example 591, 1,2-Benzisothiazole-3-acetonitrile, 5-[3,6-dihydro-3-methyl-2,6-dioxo-4-(trifluoromethyl)-1(2H)-pyrimidinyl]-alpha-(2-methylpropylidene)-]","herbicidal effect rating, ECHORC",[1]; [22],3.0
same,"herbicidal effect rating, ECHORC",[1]; [23],3.0
same,"herbicidal effect rating, ECHORC",[1]; [24],7.0
same,"herbicidal effect rating, ECHORC",[1]; [25],9.0
same,"herbicidal effect rating, CYPIR",Cyperus iria; [22],3.0
same,"herbicidal effect rating, CYPIR",Cyperus iria; [23],4.0
same,"herbicidal effect rating, CYPIR",Cyperus iria; [24],7.0
same,"herbicidal effect rating, CYPIR",Cyperus iria; [25],7.0
same,"herbicidal effect rating, CYPSE",[2]; [22],0.0
same,"herbicidal effect rating, CYPSE",[2]; [24],0.0
same,"herbicidal effect rating, MOOVA",[3]; [22],7.0
same,"herbicidal effect rating, MOOVA",[3]; [23],9.0
same,"herbicidal effect rating, MOOVA",[3]; [24],9.0
same,"herbicidal effect rating, MOOVA",[3]; [25],9.0
same,"herbicidal effect rating, SAGPY","Sagittaria pygmaea, L.; [22]",0.0
same,"herbicidal effect rating, SAGPY","Sagittaria pygmaea, L.; [23]",3.0
same,"herbicidal effect rating, SAGPY","Sagittaria pygmaea, L.; [24]",7.0
same,"herbicidal effect rating, SAGPY","Sagittaria pygmaea, L.; [25]",7.0
same,herbicidal effect rating ORYSAT,[4]; [18],2.0
same,herbicidal effect rating ORYSAT,[4]; [19],4.0
same,herbicidal effect rating ORYSAT,[4]; [20],4.0
same,herbicidal effect rating ORYSAT,[4]; [21],5.0
"CC(Oc1ccccc1-c1nsc2ccc(-n3c(=O)cc(C(F)(F)F)n(C)c3=O)cc12)C(=O)O (stereo not drawn) [Example 314, Propionic acid, 2-{o-{5-[3,6-dihydro-3-methyl-2,6-dioxo-4-(trifluoromethyl)-1(2H)-pyrimidinyl]-1,2-benzisothiazol-3-yl}phenoxy}-]","herbicidal effect rating, ECHORC",[1]; [14],5.0
same,"herbicidal effect rating, ECHORC",[1]; [15],5.0
same,"herbicidal effect rating, ECHORC",[1]; [16],9.0
same,"herbicidal effect rating, ECHORC",[1]; [17],9.0
same,"herbicidal effect rating, CYPIR",Cyperus iria; [14],9.0
same,"herbicidal effect rating, CYPIR",Cyperus iria; [15],9.0
same,"herbicidal effect rating, CYPIR",Cyperus iria; [16],9.0
same,"herbicidal effect rating, CYPIR",Cyperus iria; [17],9.0
same,"herbicidal effect rating, CYPSE",[2]; [14],0.0
same,"herbicidal effect rating, CYPSE",[2]; [15],0.0
same,"herbicidal effect rating, CYPSE",[2]; [16],0.0
same,"herbicidal effect rating, CYPSE",[2]; [17],0.0
same,"herbicidal effect rating, MOOVA",[3]; [14],9.0
same,"herbicidal effect rating, MOOVA",[3]; [15],9.0
same,"herbicidal effect rating, MOOVA",[3]; [16],9.0
same,"herbicidal effect rating, MOOVA",[3]; [17],9.0
same,"herbicidal effect rating, SAGPY","Sagittaria pygmaea, L.; [14]",0.0
same,"herbicidal effect rating, SAGPY","Sagittaria pygmaea, L.; [15]",0.0
same,"herbicidal effect rating, SAGPY","Sagittaria pygmaea, L.; [16]",0.0
same,"herbicidal effect rating, SAGPY","Sagittaria pygmaea, L.; [17]",0.0
same,herbicidal effect rating ORYSAT,[4]; [18],3.0
same,herbicidal effect rating ORYSAT,[4]; [19],3.0
same,herbicidal effect rating ORYSAT,[4]; [20],4.0
same,herbicidal effect rating ORYSAT,[4]; [21],5.0
